Measurements: patent US5171573A, “4^G -alpha-D-glucopyranosyl rutin, and its preparation and uses” (Kabushiki Kaisha Hayashibara Seibutsu Kagaku Kenkyujo, priority 1989, dated 1992)
In brackets after ≈: the same amount, converted by molar mass.

Legend:
[1] = Physical properties (hygroscopicity, acidity in aqueous solution); type: physicochemical
[2] = tested on: alpha-glucosidase derived from pig liver; assay: Hydrolysis using an alpha-glucosidase derived from pig liver; type: biochemical
Text: ii) Hydrolysis using an alpha-glucosidase derived from pig liver yields 1 mole of glucose per mole of rutin.

[3] = Solubility in solvents / water-solubility; type: physicochemical
Experimental: Soluble in methanol and ethanol. […] One ml water dissolves about 4.3 g of the present substance at 25° C. Only 1 g rutin (control) dissolves in 8 liters of water.

[4] = Antioxidant activity on powdered peanut butter (peroxide value during standing at 35° C.)
Experimental: 4^G -Alpha-D-glucopyranosyl rutin was tested for antioxidant activity on powdered peanut butter which is used an example of fatty food substances highly susceptive to oxidation. […] The mixture was placed in a tray, sealed, solidified by allowing it to stand at 35° C. for 1 day, and prepared into a powder which was then placed in aluminum cups and allowed to stand in a 35° C. incubator without sealing. During the standing, the contents in the aluminum cups were periodically checked for their peroxide value. […] As the control, a group with no antioxidant was tested similarly as above.

[5] = Stability in aqueous solution; type: physicochemical; conditions: pH 3-7, aqueous solution
7-week old dd mice = assay: Acute toxicity, oral, 7-week old dd mice
[6] = ambient temperature, prior art; cited from earlier work

For `C[C@@H]1O[C@@H](OC[C@H]2O[C@@H](Oc3c(-c4ccc(O)c(O)c4)oc4cc(O)cc(O)c4c3=O)[C@H](O)[C@@H](O)[C@@H]2O[C@H]2O[C@H](CO)[C@@H](O)[C@H](O)[C@H]2O)[C@H](O)[C@H](O)[C@H]1O` [4^G -alpha-D-glucopyranosyl rutin], the “acidity in aqueous solution” value ([1]; aqueous solution) was “Neutral or slightly acidic”, the hygroscopicity / deliquescence ([1]; powder, purity about 99.8%) was “Non-hygroscopic and non-deliquescent” and the “glucose yielded on enzymatic hydrolysis” value [2] was 1 mole of glucose per mole of rutin. For the same molecule, the “Solubility in solvent: 0.1N hydrochloric acid” value [3] was “Readily soluble”, the “Solubility in solvent: 0.1N sodium hydroxide” value [3] was “Readily soluble” and the “Solubility in solvent: acetic acid” value [3] was “Readily soluble”. The “Solubility in solvent: chloroform” value [3] was “Hardly soluble”, the “Solubility in solvent: ethanol” value [3] was “Soluble” and the “Solubility in solvent: ethyl acetate” value [3] was “Hardly soluble”. For the same molecule, the “Solubility in solvent: methanol” value [3] was “Soluble”, the “Solubility in solvent: water” value [3] was “Readily soluble” and the “solubility improved as compared to that of rutin” value [3] was “about thirty thousand”. For the same molecule, the solubility ([3]; water) was roughly 4300 mg/mL (≈ 5570 mM), the peroxide value ([4]; 0 days) was 1.78 meq/kg and the peroxide value ([4]; 8 days) was 5.53 meq/kg. For the same molecule, the peroxide value ([4]; 27 days) was 14.6 meq/kg, the peroxide value ([4]; 42 days) was 23.4 meq/kg and the peroxide value ([4]; 55 days) was 32.5 meq/kg. The “Stability in aqueous solution” value [5] was “Superiorily stable”, the “acute toxicity, in words” value (7-week old dd mice; 7-week old dd mice, powder of Example A-3) was “extremely low in toxicity” and the “acute toxicity: dose up to which no mouse died” value (7-week old dd mice; 7-week old dd mice, powder of Example A-3, higher dose was difficult) was greater than 5 g. For the same molecule, the “acute toxicity, in words” value (7-week old dd mice; dd mice, high-purity powder of Example A-4, same result as Example A-3 powder) was “extremely low”.
In the case of `C[C@@H]1O[C@@H](OC[C@H]2O[C@@H](Oc3c(-c4ccc(O)c(O)c4)oc4cc(O)cc(O)c4c3=O)[C@H](O)[C@@H](O)[C@@H]2O)[C@H](O)[C@H](O)[C@H]1O` [rutin], the water-solubility [6] is given as “about 0.01 w/v %” and the “Solubility in 8 liters of water” value ([3]; 8 liters of water (control)) is given as 1 g.
